Test results from PubChem BioAssay (NCI).
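Protocol summary: plate cells (96-well), add compound at 5 concentrations, incubate 48 h, interpolate endpoints linearly. The concentration for 50% growth inhibition is given as GI50. TGI: concentration producing complete growth inhibition.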

Assays:
Assay in all cases: NCI-60 cell line screen, 48 h
A549 NSCLC = tested on: A549 NSCLC
DLD-1 colon = tested on: DLD-1 colon
DMS 114 small cell lung = tested on: DMS 114 small cell lung
K-562 leukemia = tested on: K-562 leukemia
RXF 393 renal = tested on: RXF 393 renal
U251 CNS = tested on: U251 CNS
NCI-H460 lung = tested on: NCI-H460 lung
BT-549 breast = tested on: BT-549 breast
MDA-MB-231 breast = tested on: MDA-MB-231 breast
NCI/ADR-RES ovarian = tested on: NCI/ADR-RES ovarian

Row | SMILES | TGI (A549 NSCLC) [µM] | TGI (DLD-1 colon) [µM] | TGI (DMS 114 small cell lung) [µM] | TGI (K-562 leukemia) [µM] | TGI (RXF 393 renal) [µM] | TGI (U251 CNS) [µM] | TGI (NCI-H460 lung) [µM] | GI50 (DLD-1 colon) [µM] | GI50 (U251 CNS) [µM] | GI50 (A549 NSCLC) [µM] | GI50 (NCI-H460 lung) [µM] | GI50 (K-562 leukemia) [µM] | TGI (BT-549 breast) [µM] | TGI (MDA-MB-231 breast) [µM] | TGI (NCI/ADR-RES ovarian) [µM] | GI50 (BT-549 breast) [µM] | GI50 (MDA-MB-231 breast) [µM] | GI50 (NCI/ADR-RES ovarian) [µM] | GI50 (RXF 393 renal) [µM]
1 | O=C(Nc1nc2ccc([N+](=O)[O-])cc2s1)C(=O)C(C(=O)c1ccncc1)C1OC(=O)c2ccccc21 (stereo not drawn) | > 100 | > 100 | > 100 | > 100 | > 100 | > 100 |  |  |  |  |  |  |  |  |  |  |  |  | 
2 | COc1nc2c(nc(N)n2C2OCC(O)C(O)C2O)c(=O)n1C (stereo not drawn) | > 100 | > 100 | > 100 | > 100 | > 100 | > 100 | > 100 |  |  |  |  |  |  |  |  |  |  |  | 
3 | O=c1cccccc1[O-].O=c1cccccc1[O-].O=c1cccccc1[O-].[Ce+3] | > 100 | > 100 |  | > 100 | 40.4 | 93.6 | > 100 | 16.7 | 18.3 |  |  |  |  |  |  |  |  |  | 
4 | CC1(C(=O)O)CCOc2ccccc21 (stereo not drawn) | > 100 | > 100 | > 100 | > 100 | > 100 |  | > 100 |  |  |  |  |  |  |  |  |  |  |  | 
5 | CC(=O)[O-].[Zn].c1ccc(/C(=N\Nc2ccccn2)c2ccccn2)cc1 | 5.48 | 2.49 | 0.0192 | 2.35 |  | 1.88 | 1.32 |  | 0.482 | 0.447 | 0.35 |  |  |  |  |  |  |  | 
6 | C=C1CCCC2[C@](C)(CC3=C(O)C(=O)C=C(OC)C3=O)[C@@H](C)CC[C@]12C (stereo partly drawn) | 11 | 69.1 | 7.61 | > 100 | 10.6 | > 100 | 17.5 |  |  |  |  |  |  |  |  |  |  |  | 
7 | S=c1sc2cscc2s1 | 37.5 | 50.6 | 45.2 | > 100 | 51.5 | > 100 | 53.8 |  |  |  |  |  |  |  |  |  |  |  | 
8 | OCC(O)C(O)C(O)c1nn(-c2ccccc2)c2nc3cc(Cl)c(Cl)cc3nc12 (stereo not drawn) | > 100 | > 100 | > 100 | 44.1 | 47.7 | > 100 | > 100 |  |  |  |  |  |  |  |  |  |  |  | 
9 | Cc1ccc(C2=C(c3ccc(C)cc3)C(c3ccc(C)cc3)=C(c3ccc(C)cc3)C2=O)cc1 | > 100 | > 100 |  | > 100 | > 100 | > 100 | > 100 |  |  |  |  |  |  |  |  |  |  |  | 
10 | O=C(Nc1ccc(Br)cc1)C(=O)C(C(=O)c1ccccc1F)C1OC(=O)c2ccccc21 (stereo not drawn) | > 100 | 80.1 | 62.8 | > 100 |  | 51.8 | > 100 |  |  |  |  |  |  |  |  |  |  |  | 
11 | CC(C)CC12CC3CCC(CNC1=O)C32C (stereo not drawn) | > 100 | > 100 | > 100 | > 100 | > 100 | > 100 | > 100 |  |  |  |  |  |  |  |  |  |  |  | 
12 | CC1CCCc2c1c1ccc3c(O)cccc3c1oc2=O (stereo not drawn) | > 100 | > 100 | 76.3 | > 100 | 73.2 | > 100 | > 100 |  |  |  |  |  |  |  |  |  |  |  | 
13 | CCN(CC)c1ccc(N=C2C=C(Cl)C(=O)c3ncccc32)c(C)c1 | 48.5 | 17 | 8.19 | 11.1 | 17.5 | 18 | 39 |  |  |  |  |  |  |  |  |  |  |  | 
14 | CC(C)C(=O)[O-].CC(C)C(=O)[O-].N.N.N.N.[Co+3].[O-][Cl+3]([O-])([O-])[O-] | > 100 | > 100 |  | > 100 |  | > 100 | > 100 | > 100 | > 100 | > 100 | > 100 | > 100 |  |  |  |  |  |  | 
15 | COc1cc(/C=C\c2ccc(Br)cc2)cc(OC)c1OC | > 100 | > 100 | 69.1 | 36.8 |  | 0.012 |  |  |  |  |  |  |  |  |  |  |  |  | 
16 | CCOC(=O)C1=C(Nc2ccc(Br)cc2)OC/C1=N\NC(=O)c1ccccc1O | > 100 | 97.3 |  | 38.6 | 14.2 | > 100 | > 100 |  |  |  |  |  |  |  |  |  |  |  | 
17 | CC(=O)OC1CCC2C(=CCC3C2(C)C(=O)CC2(C)C(C4(C)OC(C(C)C)=CC4=O)C(O)CC32C)C1(C)C (stereo not drawn) | > 100 | > 100 | 57.8 | > 100 |  | > 100 | 66.4 |  |  |  |  |  |  |  |  |  |  |  | 
18 | CC(=O)/C=C1\CC(=O)Nc2ccccc2N1 | > 100 | > 100 | > 100 | > 100 | > 100 | > 100 | > 100 |  |  |  |  |  |  |  |  |  |  |  | 
19 | CCn1c(=O)c2ccccc2n2c(=O)c3cc4ccccc4cc3nc12 | > 100 | > 100 | > 100 | > 100 | 37 | > 100 | > 100 |  |  |  |  |  |  |  |  |  |  |  | 
20 | OCC(CCc1c[nH]c2ccccc12)c1c[nH]c2ccccc12 (stereo not drawn) | 47.2 |  |  | 67.6 | 30.8 | 30.4 | 28 |  |  |  |  |  | 30.5 | 27.6 | 44.1 |  |  |  | 
21 | CC(C)C[C@H](NC(=O)CCn1ccc2ncccc2c1=O)B(O)O | > 100 |  |  | > 100 | 15.2 | > 100 | > 100 |  | 24.9 | 36.1 | 31.9 | 13.2 | 23.1 | 46.6 | > 100 | 4.86 | 9.73 | > 100 | 3.54
22 | COc1ccc2c(CCNC(=O)/C=C/c3ccccc3)c(C(C)=O)[nH]c2c1[N+](=O)[O-] | > 100 |  | > 100 | > 100 |  | > 100 | > 100 |  |  |  |  |  |  |  |  |  |  |  | 
23 | O=C(CCSc1ccnc2c(C(F)(F)F)cccc12)N/N=C/c1cc(Cl)c(Cl)cc1Cl | 53.5 |  |  | > 100 | 52.3 | 32.4 | 54.5 |  | 18.4 | 24.8 | 25.4 | 39.6 | 38.9 | 32.6 | 49.7 | 18 | 16.8 | 23 | 20.9
24 | Nc1nccc2c1ncn2C1OC(CO)C(O)C1O (stereo not drawn) | > 100 |  |  | > 100 | > 100 | > 100 | > 100 |  | > 100 | > 100 | 73.8 | > 100 | > 100 | > 100 | > 100 | 88.8 | > 100 | > 100 | 48.5
25 | COc1cc2c3c(n(CCCBr)c(=O)c2cc1OC)-c1ccc(F)cc1C3=O | > 100 |  |  | > 100 | > 100 | 24.3 | 47.2 |  | 3.74 | 36.8 | 2.38 | 16.3 | 49.7 | > 100 | > 100 | 13.9 | 66.3 | 13.3 | 34.4
